Data on 6 compounds can be found in the NIST ThermoML archive (doi:10.1016/j.fluid.2004.12.004).

Structures are written as SMILES. Numbers after ± are expanded uncertainties.

For the data set the following is noted: 298.15 K; 101.33 kPa; Liquid; Vibrating tube method.
For orientation: mass density means mass per unit of volume. In the case of `COC(=O)c1ccccc1C(=O)OC` [dimethyl 1,2-benzenedicarboxylate], the mass density is reported as 1186.9 ± 0.2 kg/m3.
The same measure for `CCOC(C)=O` [ethyl acetate]: 894.4 ± 0.6 kg/m3.
For the compound `CCCCO` [butan-1-ol], the mass density is listed as 805.8 ± 0.2 kg/m3.
Turning to `CC(=O)Oc1ccccc1` [phenyl ethanoate], the mass density turned out to be 1073.3 ± 0.42 kg/m3.
In the case of `CC1CCCCC1` [methylcyclohexane] it was 764.96 ± 0.13 kg/m3; in that of `CN(C)C=O` [dimethylformamide], 943.81 ± 0.2 kg/m3.
